Data published in US20140323500A1, “NADPH OXIDASE 4 INHIBITORS AND USE THEREOF” (GENKYOTEX SA, priority 2011, published 2014).

Molecular target: T1, human Nox2 (Homo sapiens, UniProt P04839)
T1 construct: host or cells: T-REx-CHO (hNOX2 T-REx-CHO), tetracycline-induced; membrane fraction
T1 sequence (P04839 2-570 limits assumed): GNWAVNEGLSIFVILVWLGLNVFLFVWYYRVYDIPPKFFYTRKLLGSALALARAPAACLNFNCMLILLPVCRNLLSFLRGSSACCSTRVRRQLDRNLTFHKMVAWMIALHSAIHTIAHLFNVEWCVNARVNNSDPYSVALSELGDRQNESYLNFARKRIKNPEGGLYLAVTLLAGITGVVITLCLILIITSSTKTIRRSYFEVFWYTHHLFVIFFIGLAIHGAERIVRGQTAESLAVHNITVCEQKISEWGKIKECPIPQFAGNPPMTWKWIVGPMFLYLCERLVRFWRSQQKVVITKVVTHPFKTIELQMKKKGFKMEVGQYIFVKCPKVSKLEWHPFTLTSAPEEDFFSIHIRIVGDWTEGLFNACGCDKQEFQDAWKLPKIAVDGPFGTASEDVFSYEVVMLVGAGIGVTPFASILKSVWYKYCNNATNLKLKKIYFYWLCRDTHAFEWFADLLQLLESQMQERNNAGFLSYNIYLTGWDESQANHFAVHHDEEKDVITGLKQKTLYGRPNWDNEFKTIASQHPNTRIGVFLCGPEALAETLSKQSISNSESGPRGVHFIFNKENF
T1 sequence (P13498 2-195 partner limits assumed): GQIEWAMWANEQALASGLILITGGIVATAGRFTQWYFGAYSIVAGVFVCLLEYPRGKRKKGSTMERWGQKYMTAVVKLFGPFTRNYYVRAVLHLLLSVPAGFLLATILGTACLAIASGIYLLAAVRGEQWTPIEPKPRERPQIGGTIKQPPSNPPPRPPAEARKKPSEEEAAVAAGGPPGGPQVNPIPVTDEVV
Experiment: ROS production by membranes expressing human Nox2, cell-free Amplex Red assay
Assay type: biochemical
Conditions: cell-free membranes, Amplex Red; Cheng-Prusoff; average of at least three experiments in triplicate; read-out: Ki hNox2
Summary of the method: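 Membranes from tetracycline-induced (1 μg/ml, 24 h) T-REx-CHO cells stably expressing hNox2 with p22 and cofactors, incubated in PBS with Amplex Red, HRP and cofactors; NADPH starts ROS production. Compounds 1 nM–100 μM, 20 min at 37 °C, then fluorescence (544/590 nm) read for 10 min; Ki by Cheng-Prusoff.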

Which Ki does the source give for `COc1ccc(-c2c3c(=O)n(-c4ccccc4OC)[nH]c3cc(=O)n2Cc2cccnc2)c(F)c1` [Compound (1), 4-(2-fluoro-4-methoxyphenyl)-2-(2-methoxyphenyl)-5-(pyridin-3-ylmethyl)-1H-pyrazolo[4,3-c]pyridine-3,6(2H,5H)-dione] here?
Its Ki is 813 nM.
